Assay results as given in US9603843B2, “Kits and methods for treating post traumatic stress disorder (PTSD) and hot flashes” (CAD MEDICAL SOLUTIONS, LLC, priority 2013, dated 2017).
Read-outs that look alike come from different tables or passages of the source.

Tests used:
[1] = tested on: patient having PTSD; settings: patient treated with CB without and with clonidine
Description: The procedure involved a local anesthetic mixed with clonidine delivered by a shot in the patient's neck in a procedure that is similar to an epidural given to women in labor.

[2] = tested on: peripheral nerve blocks; settings: cited from earlier work
[3] = cited from earlier work
[4] = tested on: dogs; settings: cited from earlier work
[5] = tested on: PTSD; settings: Navy study, ultrasound guidance, not xray guidance; cited from earlier work
[6] = group 1: left SGB, 0.5% mepivacaine 1 ml

Structure (SMILES): Clc1cccc(Cl)c1N=C1NCCN1 [clonidine]
- patient-reported result with clonidine over the local anesthetic alone [1]: significantly more effective result
- duration of analgesia and anesthesia ([2]; adjunct to intermediate-acting local anesthetics for some peripheral nerve blocks): improves
- side-effects ([2]; doses up to 150 µg): limited

Structure (SMILES): CCCCN1CCCCC1C(=O)Nc1c(C)cccc1C (centres unmarked) [bupivacaine]
- solubility ([3]; 95 percent ethanol): freely soluble
- solubility ([3]; chloroform or acetone): slightly soluble
- solubility ([3]; water): soluble

Structure (SMILES): Cc1cccc(C)c1NC(=O)C1CCCCN1C (centres unmarked) [mepivacaine]
- left brachial artery blood flow (BABF) after left SGB ([4]; group 1: 0.5% mepivacaine 1 ml): increased significantly
- right BABF after left SGB ([4]; group 1: 0.5% mepivacaine 1 ml): decreased significantly
- heart rate (HR) [4, 6]: no significant change
- mean arterial pressure (MAP) [4, 6]: no significant change

Structure (SMILES): CCCN1CCCC[C@H]1C(=O)Nc1c(C)cccc1C [Ropivacaine, ropivacaine]
- RCSGI versus placebo [5]: no difference
